These are literature values, as cited in US20210069064A1, “A MANUFACTURING METHOD OF AN HERBAL MEDICINAL TABLET FORMULATION FOR TREATING OBESITY WHICH CAN BE […] ON SASANG CONS[…]” (NUBEBE CO., LTD., priority 2017, published 2021).

The conditions of this data set: taken for 20 weeks or more.

Take `CN[C@@H](C)[C@H](O)c1ccccc1` [ephedrine]: the “weight and body fat change compared to the control group” value is “weight and body fat loss”.
